According to paper PMC9842534 (European Journal of Medicinal Chemistry, 2023):
Where a SMILES comes first, the peptide text is derived from it. Bridges are numbered along the chain shown (N, C = ends). [ ]: non-standard residue; d: D form. S5 = C=CCCC[C@](C)(N)C(=O)O

Molecular target: SARS-CoV-2 Spike RBD-ACE2 interaction (Severe acute respiratory syndrome coronavirus 2, UniProt P0DTC2)
Format: binding, SARS-CoV-2 / human

CC(C)C[C@@H]1NC(=O)[C@H](CC(=O)O)NC(=O)[C@H](CCC(=O)O)NC(=O)[C@@](C)(NC(=O)[C@H](CCC(=O)O)NC(=O)[C@@H](N)Cc2c[nH]cn2)CCC/C=C\CCC[C@@](C)(C(=O)N[C@@H](Cc2ccc(O)cc2)C(=O)N[C@@H](CCC(N)=O)C(N)=O)NC1=O [Compound 6] (H-HE[S5]EDL[S5]YQ-NH2; staple (Z) 3-7; N-terminus and C-terminus assumed)
inhibition of the spike RBD-ACE2 interaction (in words): significant inhibitory activity
